Values quoted from earlier work in patent US8604163B2, “EEF2K assays for identifying compounds that inhibit EEF2K activity” (University of Medicine and Dentistry of New Jersey, priority 2009, dated 2013).

Tested on: glioma cell lines
Settings: by inhibiting eEF2-K; Parmer et al. 1997

CC(=O)c1c(O)c(C)c(O)c(Cc2c(O)c3c(c(C(=O)/C=C/c4ccccc4)c2O)OC(C)(C)C=C3)c1O [rottlerin]
growth of glioma cell lines: inhibit growth of glioma cell lines
